The target of one data set is Chk-1 kinase (Homo sapiens (Human), UniProt O14757). The experiment in a line: Chk-1 kinase inhibiting activity (33P-ATP filter assay, CHKtide substrate). It counts as biochemical. As to the method:
The compounds of the invention were tested for activity against Chk-1 kinase using the materials and protocols set out below.
Base Reaction buffer: 20 mM Hepes (pH 7.5), 10 mM MgCl2, 1 mM EGTA, 0.02% Brij35, 0.02 mg/ml BSA, 0.1 mM Na3VO4, 2 mM DTT, 1% DMSO
*Required cofactors are added individually to each kinase reaction
(i) Prepare indicated substrate in freshly prepared Base Reaction Buffer
(ii) Deliver any required cofactors to the substrate solution above
(iii) Deliver indicated kinase into the substrate solution and gently mix
(iv) Deliver compounds in DMSO into the kinase reaction mixture
(v) Deliver ^33P-ATP (specific activity 0.01 μCi/μl final) into the reaction mixture to initiate the reaction.
(vi) Incubate kinase reaction for 120 minutes at room temperature
(vii) Reactions are spotted onto P81 ion exchange paper (Whatman #3698-915)
(viii) Wash filters extensively in 0.1% phosphoric acid.
(ix) Dry filters and measure counts in scintillation counter
Recombinant full length construct, N-terminal GST tagged, purified from insect cells.
No special measures were taken to activate this kinase.
Final concentration in assay=0.5 nM
Peptide sequence: [[…]]
Final concentration in assay=20 μM
No additional cofactors are added to the reaction mixture

The subject of the next data set is HT29 cells. The experiment in a line: Sensitisation of HT29 cells to SN38 (Alamar blue cell growth). It counts as cell-based, human. Particulars: for Cell potentiation factor: SN38 sensitisation assay in HT-29 cells; for fold shift in the IC50 value of SN38: HT29 cells. As to the method: Studies were carried out to test the sensitising effect of compounds of the invention on the ability of the DNA damaging compound 7-ethyl-10-hydroxycamptothecin (SN38), an active metabolite of the anti-cancer drug irinotecan, to inhibit cell growth in HT29 cells.
The following protocol was used:
(a) HT29 cells were seeded in 96-well plates at a concentration of 3000 cells per well and allowed to adhere overnight prior to addition of compound or vehicle control.
(b) SN38 was prepared from a 10 mM DMSO stock to give a final concentration range of 1 μM, 300 nM, 100 nM, 30 nM, 10 nM, 3 nM, 1 nM, and vehicle control.
(c) Test compounds were prepared from 10 mM DMSO stocks to typically give a final concentration range of 3 μM, 1 μM, 0.3 μM. 0.1 μM, 0.03 μM and vehicle control. The final DMSO content was 0.4%.
(d) Test compounds were incubated with the cells for 72 h at 37° C. 5% CO2 in a humidified atmosphere.
(e) Alamar blue 10% (v/v) was then added and incubated for a further 6 h, and fluorescent product detected using the BMG FLUOstar plate reader.
(f) Data were analysed using a 4-parameter logistic equation in GraphPad Prism.
Sensitisation is determined by the enhancement in IC50 of SN38 by the addition of the Chk-1 kinase inhibitor. In the protocol described above, the IC50 for SN-38 is determined the presence of varying doses of the Chk-1 inhibitor. The fold shift represents a decrease in IC50 for SN-38 at a dose of Chk-1 inhibitor that has no effect by itself.
For orientation: Alamar Blue is a resazurin reagent that responds to reducing activity.

Setting [1] is: Chk-1 kinase, Table 3, read-out: IC50.
Where [2] appears, read: comparative tests, Example 70, read-out: Chk-1 IC50.
Setting [3] is: ranges given, read-out: IC50 values against Chk-1 kinase.

Structures are written as SMILES. Counter-ions that a name gives are not always drawn. Like-named read-outs stand apart in the source and are kept apart here.

Sequence of Chk-1 kinase (O14757 whole entry): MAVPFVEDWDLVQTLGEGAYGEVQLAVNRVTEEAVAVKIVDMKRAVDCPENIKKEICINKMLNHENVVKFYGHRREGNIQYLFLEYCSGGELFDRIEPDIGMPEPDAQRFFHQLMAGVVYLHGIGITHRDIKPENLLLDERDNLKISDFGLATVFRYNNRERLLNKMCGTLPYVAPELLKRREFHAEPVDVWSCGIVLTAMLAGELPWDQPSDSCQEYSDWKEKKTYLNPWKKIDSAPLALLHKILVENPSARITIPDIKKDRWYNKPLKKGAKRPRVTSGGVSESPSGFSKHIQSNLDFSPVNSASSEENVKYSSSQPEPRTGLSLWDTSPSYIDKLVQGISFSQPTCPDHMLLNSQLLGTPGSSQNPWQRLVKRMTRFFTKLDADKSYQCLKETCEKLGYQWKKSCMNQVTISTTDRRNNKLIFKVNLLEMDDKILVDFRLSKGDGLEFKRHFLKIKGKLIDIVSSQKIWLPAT

A word on the IC50: it is the point on the concentration scale where inhibition reaches its midpoint. With `COc1cc(CCNCc2cccc(F)c2)c(Cl)cc1NC(=O)Nc1cnc(C#N)cn1` [Example 19, 1-{5-Chloro-4-[2-(3-fluoro-benzylamino)-ethyl]-2-methoxy-phenyl}-3-(5-cyano-pyrazin-2-yl)-urea hydrochloride], the IC50 on Chk-1 kinase (setting [1]) is 1.2 nM; at Chk-1 kinase (setting [2]), 8 nM; at Chk-1 kinase (setting [3]), < 10 nM. In addition, the Cell potentiation factor in the data set on HT29 cells (compound at 3 μM) stood at 50 fold.
On to `COc1cc(CNCc2ccc(F)cc2)ccc1NC(=O)Nc1cnc(C#N)cn1` [Example 57, 1-(5-Cyano-pyrazin-2-yl)-3-{4-[(4-fluoro-benzylamino)-methyl]-2-methoxy-phenyl}-urea hydrochloride], for which the IC50 is 8.9 nM on Chk-1 kinase (setting [1]) and < 10 nM on Chk-1 kinase (setting [3]). In addition, the “fold shift in the IC50 value of SN38” value in the data set with HT29 cells (test compound at 1 μM) is recorded as “two”; in the data set with HT29 cells (test compound at 3 μM), “greater than ten”.
As to `COc1ccccc1CNCc1ccc(NC(=O)Nc2cnc(C#N)cn2)c(OC)c1` [Example 62, 1-(5-Cyano-pyrazin-2-yl)-3-{2-methoxy-4-[(2-methoxy-benzylamino)-methyl]-phenyl}-urea], the IC50 at Chk-1 kinase (setting [1]) was 7.8 nM; on Chk-1 kinase (setting [3]), < 10 nM.
In the case of `COc1cc(CCNCc2ccccc2)ccc1NC(=O)Nc1cnc(C)cn1` [Example 32, 1-[4-(2-Benzylamino-ethyl)-2-methoxy-phenyl]-3-(5-methyl-pyrazin-2-yl)-urea hydrochloride], the IC50 on Chk-1 kinase (setting [1]) and on Chk-1 kinase (setting [2]) was 27 nM throughout. Moreover, at Chk-1 kinase (relative to Compound 338 of WO02/070494 (alkylene chain 1 to 2 carbon atoms)), the “fold improvement in potency against Chk-1” value was ~3 fold.
Take `COc1cc(CCN[C@@H](C)c2ccc(N3CCNCC3)cc2)c(Cl)cc1NC(=O)Nc1cnc(C#N)cn1` [Example 52, 1-(5-Chloro-2-methoxy-4-{2-[(S)-1-(4-piperazin-1-yl-phenyl)-ethylamino]-ethyl}-phenyl)-3-(5-cyano-pyrazin-2-yl)-urea hydrochloride]: the results for the IC50 at Chk-1 kinase (setting [1]) and on Chk-1 kinase (setting [3]) were 0.13 nM and < 10 nM, respectively.
As for `N#Cc1cnc(NC(=O)Nc2ccc(CCNCc3ccc(C(F)(F)F)cc3)c(Cl)c2)cn1` [Example 17, 1-{3-Chloro-4-[2-(4-trifluoromethyl-benzylamino)-ethyl]-phenyl}-3-(5-cyano-pyrazin-2-yl)-urea hydrochloride], the figures for the half-inhibitory concentration (IC50) on Chk-1 kinase (setting [1]) and at Chk-1 kinase (setting [3]) were 78 nM and 10 to 100 nM, respectively. Also, the “fold shift in the IC50 value of SN38” value in the data set with HT29 cells (test compound at 1 μM) is “two”.
As for `N#Cc1cnc(NC(=O)Nc2ccc(CNCc3ccccc3)cc2)cn1` [Example 29, 1-[4-(Benzylamino-methyl)-phenyl]-3-(5-cyano-pyrazin-2-yl)-urea], the IC50 was 320 nM at Chk-1 kinase (setting [1]) and 100 to 1000 nM on Chk-1 kinase (setting [3]). Also, the “fold shift in the IC50 value of SN38” value with HT29 cells (test compound at 10 μM) is “four”. Further, in the data set with HT29 cells (compound at 10 μM), the Cell potentiation factor was 4 fold.
`COc1cc(CNCc2ccccc2)c(Cl)cc1NC(=O)Nc1cnc(C#N)cn1` [Example 56, 1-[4-(Benzylamino-methyl)-5-chloro-2-methoxy-phenyl]-3-(5-cyano-pyrazin-2-yl)-urea hydrochloride]: the IC50 is 2.8 nM at Chk-1 kinase (setting [1]) and < 10 nM at Chk-1 kinase (setting [3]).
As for `Cc1cc(NC(=O)Nc2cnc(C#N)cn2)ccc1CCNCc1ccc(F)cc1` [Example 36, 1-(5-Cyano-pyrazin-2-yl)-3-{4-[2-(4-fluoro-benzylamino)-ethyl]-3-methyl-phenyl}-urea hydrochloride], the IC50 at Chk-1 kinase (setting [1]) turned out to be 10 nM.
On to `N#Cc1cnc(NC(=O)Nc2ccc(CCNCc3ccccc3Cl)c(Cl)c2)cn1` [Example 10, 1-{3-Chloro-4-[2-(2-chloro-benzylamino)-ethyl]-phenyl}-3-(5-cyano-pyrazin-2-yl)-urea], for which the IC50 on Chk-1 kinase (setting [1]) was 62 nM; on Chk-1 kinase (setting [3]), 10 to 100 nM. Besides, in the data set with HT29 cells (test compound at 3 μM), the “fold shift in the IC50 value of SN38” value is “three”.
As for `COc1cc(CNCc2ccc(F)cc2)c(Cl)cc1NC(=O)Nc1cnc(C#N)cn1` [Example 63, 1-{5-Chloro-4-[(4-fluoro-benzylamino)-methyl]-2-methoxy-phenyl}-3-(5-cyano-pyrazin-2-yl)-urea hydrochloride], the results for the IC50 at Chk-1 kinase (setting [1]) and on Chk-1 kinase (setting [3]) were 9.8 nM and < 10 nM, respectively.
Taken in the same sequence, the figures for `COc1cc(CCN[C@H](C)c2ccc(F)cc2)ccc1NC(=O)Nc1cnc(C#N)cn1` [Example 43, 1-(5-Cyano-pyrazin-2-yl)-3-(4-{2-[(R)-1-(4-fluoro-phenyl)-ethylamino]-ethyl}-2-methoxy-phenyl)-urea] were 3.3 nM and < 10 nM.
With `COc1cc(CNCc2cccc(F)c2)ccc1NC(=O)Nc1cnc(C#N)cn1` [Example 58, 1-(5-Cyano-pyrazin-2-yl)-3-{4-[(3-fluoro-benzylamino)-methyl]-2-methoxy-phenyl}-urea hydrochloride], the IC50 on Chk-1 kinase (setting [1]) amounted to 21 nM.
For `C[C@@H](NCCc1ccc(NC(=O)Nc2cnc(C#N)cn2)cc1Cl)c1ccc(F)cc1` [Example 24, 1-(3-Chloro-4-{2-[(R)-1-(4-fluoro-phenyl)-ethylamino]-ethyl}-phenyl)-3-(5-cyano-pyrazin-2-yl)-urea hydrochloride], the IC50 at Chk-1 kinase (setting [1]) was 13 nM; on Chk-1 kinase (setting [3]) it was 10 to 100 nM.
The corresponding values for `COc1cc(OCCNCc2ccc(F)cc2)c(Cl)cc1NC(=O)Nc1cnc(C#N)cn1` [Example 47, 1-{5-Chloro-4-[2-(4-fluoro-benzylamino)-ethoxy]-2-methoxy-phenyl}-3-(5-cyano-pyrazin-2-yl)-urea hydrochloride] are 8.4 nM and < 10 nM.
The corresponding values for `COc1cccc(CNCc2ccc(NC(=O)Nc3cnc(C#N)cn3)c(OC)c2)c1` [Example 61, 1-(5-Cyano-pyrazin-2-yl)-3-{2-methoxy-4-[(3-methoxy-benzylamino)-methyl]-phenyl}-urea hydrochloride] are 7.5 nM and < 10 nM.
For `CC(C)Oc1cc(CCNCc2ccc(F)cc2)c(Cl)cc1NC(=O)Nc1cnc(C#N)cn1` [Example 46, 1-{5-Chloro-4-[2-(4-fluoro-benzylamino)-ethyl]-2-isopropoxy-phenyl}-3-(5-cyano-pyrazin-2-yl)-urea hydrochloride], the IC50 was 0.32 nM at Chk-1 kinase (setting [1]) and < 10 nM on Chk-1 kinase (setting [3]).
The corresponding values for `COc1cccc([C@H](C)NCCc2cc(OC)c(NC(=O)Nc3cnc(C#N)cn3)cc2Cl)c1` [Example 65, 1-(5-Chloro-2-methoxy-4-{2-[(S)-1-(3-methoxy-phenyl)-ethylamino]-ethyl}-phenyl)-3-(5-cyano-pyrazin-2-yl)-urea hydrochloride] are 0.73 nM and < 10 nM.
`CCOc1cc(CCNCc2ccc(F)cc2)c(Cl)cc1NC(=O)Nc1cnc(C#N)cn1` [Example 45, 1-{5-Chloro-2-ethoxy-4-[2-(4-fluoro-benzylamino)-ethyl]-phenyl}-3-(5-cyano-pyrazin-2-yl)-urea hydrochloride]: the results for the IC50 at Chk-1 kinase (setting [1]) and at Chk-1 kinase (setting [3]) were 1.2 nM and < 10 nM, respectively.
The corresponding values for `COc1cc(CCNCc2ccc(F)cc2F)ccc1NC(=O)Nc1cnc(C#N)cn1` [Example 30, 1-(5-Cyano-pyrazin-2-yl)-3-{4-[2-(2,4-difluoro-benzylamino)-ethyl]-2-methoxy-phenyl}-urea] are 6.4 nM and < 10 nM.
The corresponding values for `N#Cc1cnc(NC(=O)Nc2ccc(CCNCCc3ccc(F)cc3F)c(Cl)c2)cn1` [Example 28, 1-(3-Chloro-4-{2-[2-(2,4-difluoro-phenyl)-ethylamino]-ethyl}-phenyl)-3-(5-cyano-pyrazin-2-yl)-urea] are 47 nM and 10 to 100 nM.
As to `COc1cc(CNCc2ccccc2F)ccc1NC(=O)Nc1cnc(C#N)cn1` [Example 59, 1-(5-Cyano-pyrazin-2-yl)-3-{4-[(2-fluoro-benzylamino)-methyl]-2-methoxy-phenyl}-urea hydrochloride], at Chk-1 kinase (setting [1]), the IC50 was determined as 13 nM.
For the compound `COc1cc(CCNCc2ccc(N3CCNCC3)cc2)c(Cl)cc1NC(=O)Nc1cnc(C#N)cn1` [Example 64, 1-{5-Chloro-2-methoxy-4-[2-(4-piperazin-1-yl-benzylamino)-ethyl]-phenyl}-3-(5-cyano-pyrazin-2-yl)-urea hydrochloride], the IC50 was 0.03 nM at Chk-1 kinase (setting [1]) and < 10 nM on Chk-1 kinase (setting [3]).

The values above are taken from patent US8716287B2, “Pharmaceutical compounds” (Sentinel Oncology Limited, priority 2010, dated 2014).
